Data: ChEMBL document CHEMBL1124133, “Synthesis and hypolipidemic activity of 2-substituted isobutyric acid derivatives” (1988)

What was measured:
Assay type in all cases: functional
Conditions in all cases: route oral
Rattus norvegicus [1] = test: Hypolipidemic effects of compound on rat plasma Triglyceride (TG) level after peroral administration at 100 mg/kg dose
Rattus norvegicus [2] = test: Hypolipidemic effect on rat plasma Total cholesterol (TC) level by peroral administration at 100 mg/kg dose
Rattus norvegicus [3] = test: Hypolipidemic effects in rat fed a high cholesterol diet (HC) by peroral administration at 100 mg/kg dose(increase in liver weight with respect to body weight mg/g)
Rattus norvegicus [4] = test: Hypolipidemic effects of compound on rat plasma high density lipoprotein cholesterol (HDLC) level after peroral administration at 100 mg/kg dose
Rattus norvegicus [5] = test: Hypolipidemic effects in rat fed a normal diet by peroral administration at 100 mg/kg dose(increase in liver weight with respect to body weight mg/g)
Rattus norvegicus [6] = test: Hypolipidemic effects in rat fed a high cholesterol diet (HC) by peroral administration at 100 mg/kg dose.(increase in liver weight with respect to body weight mg/g)
Rattus norvegicus [7] = test: Hypolipidemic effect on rat plasma Total cholesterol (TC) level by peroral administration at 100 mg/kg dose (Experiment 1)
Rattus norvegicus [8] = test: Hypolipidemic effects of compound on rat plasma high density lipoprotein cholesterol (HDLC) level after peroral administration at 100 mg/kg dose (Experiment 1)
Rattus norvegicus [9] = test: Hypolipidemic effects of compound on rat plasma Triglyceride (TG) level after peroral administration at 100 mg/kg dose (Experiment 2)
Rattus norvegicus [10] = test: Hypolipidemic effect on rat plasma Total cholesterol (TC) level by peroral administration at 100 mg/kg dose (Experiment 2)
Rattus norvegicus [11] = test: Hypolipidemic effects in rat fed a normal diet by peroral administration at 100 mg/kg dose.(increase in liver weight with respect to body weight mg/g); (Experiment 2)
Rattus norvegicus [12] = test: Hypolipidemic effects of compound on rat plasma high density lipoprotein cholesterol (HDLC) level after peroral administration at 100 mg/kg dose (Experiment 2)
Rattus norvegicus [13] = test: Hypolipidemic effects in rat fed a high cholesterol diet (HC) by peroral administration at 100 mg/kg dose.(increase in liver weight with respect to body weight mg/g); (Experiment 1)
Rattus norvegicus [14] = test: Hypolipidemic effects of compound on rat plasma Triglyceride (TG) level after peroral administration at 100 mg/kg dose (Experiment 1)
Rattus norvegicus [15] = test: Hypolipidemic effects in rat fed a high cholesterol diet (HC) by peroral administration at 100 mg/kg dose.(increase in liver weight with respect to body weight mg/g); (Experiment 2)
Rattus norvegicus [16] = test: Hypolipidemic effects in rat fed a normal diet by peroral administration at 100 mg/kg dose.(increase in liver weight with respect to body weight mg/g); (Experiment 1)
Rattus norvegicus [17] = test: Hypolipidemic effects in rat fed a high cholesterol diet (HC) by peroral administration at 100 mg/kg dose.
Rattus norvegicus [18] = test: Hypolipidemic effects in rat plasma Triglyceride (TG) by peroral administration at 100 mg/kg dose
Rattus norvegicus [19] = test: Hypolipidemic effect in rat plasma Total cholesterol (TC) by peroral administration at 100 mg/kg dose
Rattus norvegicus [20] = test: Hypolipidemic effects in rat plasma high density lipoprotein cholesterol (HDLC) by peroral administration at 100 mg/kg dose
Rattus norvegicus [21] = test: Hypolipidemic effects in rat fed a high cholesterol diet (HC) by peroral administration at 100 mg/kg dose. (increase in liver weight with respect to body weight mg/g)
Rattus norvegicus [22] = test: Hypolipidemic effects in rat fed a normal diet by peroral administration at 100 mg/kg dose.
Rattus norvegicus [23] = test: Hypolipidemic effects in rat fed a normal diet by peroral administration at 100 mg/kg dose.(increase in liver weight with respect to body weight mg/g)
Rattus norvegicus [24] = test: Hypolipidemic effects of compound on rat plasma Triglyceride (TG) level after by peroral administration at 100 mg/kg dose

Compound	TG (Rattus norvegicus [1]) [mg/dL]	TC (Rattus norvegicus [2]) [mg/dL]	Liver weight (Rattus norvegicus [3])	HDL-C (Rattus norvegicus [4]) [mg/dL]	Liver weight (Rattus norvegicus [6])	other results
CC(C)(CCCOc1ccc(CCNC(=O)c2ccccc2)cc1)C(=O)O	49.4	204.1	57 mg (g of body weight)-1	42.1	–	–
Cc1ccc(C)c(CCCCc2ccc(OCCCCC(C)(C)C(=O)O)cc2)c1	34.4	125.9	–	56	59.9 mg (g of body weight)-1	Liver weight (Rattus norvegicus [5]): 40 mg (g of body weight)-1
CC(C)(CCCCOc1ccc(CCCCc2ccccc2)cc1)C(=O)O	–	–	–	–	–	TC (Rattus norvegicus [7]): 159.5 mg/dL; HDL-C (Rattus norvegicus [8]): 49.4 mg/dL; TG (Rattus norvegicus [9]): 33.8 mg/dL; TC (Rattus norvegicus [10]): 132.9 mg/dL; Liver weight (Rattus norvegicus [11]): 40.7 mg (g of body weight)-1; HDL-C (Rattus norvegicus [12]): 50.9 mg/dL; Liver weight (Rattus norvegicus [13]): 55.8 mg (g of body weight)-1; TG (Rattus norvegicus [14]): 49 mg/dL; Liver weight (Rattus norvegicus [15]): 59.1 mg (g of body weight)-1; Liver weight (Rattus norvegicus [16]): 41.7 mg (g of body weight)-1
Cc1cnc(C(=O)OCC(C)(C)CCCCOc2ccc(CCCCc3ccccc3)cc2)c[n+]1[O-]	–	–	–	–	–	Liver weight (Rattus norvegicus [17]): 57.8 mg (g of body weight)-1; TG (Rattus norvegicus [18]): 45.8 mg/dL; TC (Rattus norvegicus [19]): <146.6 mg/dL; HDL-C (Rattus norvegicus [20]): 45.3 mg/dL
CC(C)(CCCOc1ccc(Cc2ccccc2)cc1)C(=O)O	84.7	284.4	–	29.9	–	Liver weight (Rattus norvegicus [21]): 53.2 mg (g of body weight)-1
CC(C)(CCCCCCCCCOc1ccc(CCCCc2ccccc2)cc1)C(=O)O	–	–	–	–	–	Liver weight (Rattus norvegicus [22]): <38.2 mg (g of body weight)-1; Liver weight (Rattus norvegicus [17]): 57.5 mg (g of body weight)-1; TG (Rattus norvegicus [18]): 57.3 mg/dL; TC (Rattus norvegicus [19]): <173.6 mg/dL; HDL-C (Rattus norvegicus [20]): <55 mg/dL
CC(C)(CCCOc1ccc(CCCc2ccccc2)cc1)C(=O)O	–	217.5	–	40.6	54 mg (g of body weight)-1	Liver weight (Rattus norvegicus [23]): 39.1 mg (g of body weight)-1; TG (Rattus norvegicus [24]): 79.5 mg/dL
CC(C)(CCCOc1ccc(CCCCCc2ccccc2)cc1)C(=O)O	–	261.9	–	38.1	54.1 mg (g of body weight)-1	Liver weight (Rattus norvegicus [23]): 40 mg (g of body weight)-1; TG (Rattus norvegicus [24]): 71.9 mg/dL
Cc1ccc(CCCCc2ccc(OCCCCC(C)(C)C(=O)O)cc2)c(C)c1	37	173.9	62.3 mg (g of body weight)-1	73	–	Liver weight (Rattus norvegicus [5]): 41.8 mg (g of body weight)-1
CC(C)(CCCCOc1ccc(CCCCc2ccccc2)cc1)C(=O)OCc1cccnc1	43.9	154.3	–	59.6	58.2 mg (g of body weight)-1	Liver weight (Rattus norvegicus [5]): 38 mg (g of body weight)-1
CC(C)(CCCOc1ccc(CCCCCCc2ccccc2)cc1)C(=O)O	–	256.1	52.1 mg (g of body weight)-1	38.4	–	TG (Rattus norvegicus [24]): 86.2 mg/dL
CC(C)(CCCOc1ccc(C(=O)c2ccccc2)cc1)C(=O)O	53.6	260.8	81.8 mg (g of body weight)-1	57.6	–	–
CC(C)(CCCOc1ccc(CCCCc2ccccc2)cc1)C(=O)O	76.9	258.3	–	35.2	54.5 mg (g of body weight)-1	–
